# Assay results published in ChEMBL document CHEMBL4420074, “Small molecule inhibitors of Dusp6 and uses therefor” (2015).
# Calls of active or inactive are those of the source. The rule behind the calls is not given here.
# Tests used:
# [1] = Toxicity in (Tg(Dusp6:d2EGFP)pt6) transgenic Zebrafish assessed as induction of embryo death at 40 uM incubated for 24 hrs; design: species or system Danio rerio; conditions: in vivo
# [2] = Toxicity in (Tg(Dusp6:d2EGFP)pt6) transgenic Zebrafish assessed as induction of embryo death at 10 uM incubated for 24 hrs; design: species or system Danio rerio; conditions: in vivo, other: incubation
# [3] = molecular target: T1, Dual specificity protein phosphatase (Danio rerio) (UniProt Q7T2L8); experiment: Inhibition of Dusp6 in (Tg(Dusp6:d2EGFP)pt6) transgenic Zebrafish assessed as activation of FGF signaling at 20 uM treated at 24 hours post fertilization and measured after 6 hrs post dose by d2EGFP fluorescence based assay relative to BCI; design: scale not given: the % may be the effect or the level left
# T1 sequence (whole entry): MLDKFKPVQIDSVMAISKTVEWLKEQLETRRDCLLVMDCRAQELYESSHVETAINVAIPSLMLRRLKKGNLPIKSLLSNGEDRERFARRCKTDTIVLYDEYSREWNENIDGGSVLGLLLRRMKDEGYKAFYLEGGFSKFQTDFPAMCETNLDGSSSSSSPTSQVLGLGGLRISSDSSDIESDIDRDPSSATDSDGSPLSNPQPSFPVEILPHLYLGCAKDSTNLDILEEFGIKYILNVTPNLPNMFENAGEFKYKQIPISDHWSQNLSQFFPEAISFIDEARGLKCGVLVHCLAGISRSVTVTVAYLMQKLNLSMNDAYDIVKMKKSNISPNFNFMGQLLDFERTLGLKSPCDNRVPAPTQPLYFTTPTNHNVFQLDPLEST
# [4] = molecular target: T1, Dual specificity protein phosphatase (Danio rerio); experiment: Inhibition of Dusp6 in (Tg(Dusp6:d2EGFP)pt6) transgenic Zebrafish assessed as activation of FGF signaling by measuring increase in krox20 expression at 10 to 20 uM dosed 1 to 10-somite stage by whole mount in situ hybridization assay; type: organism-based
# [5] = molecular target: T1, Dual specificity protein phosphatase (Danio rerio); experiment: Inhibition of Dusp6 in (Tg(Dusp6:d2EGFP)pt6) transgenic Zebrafish assessed as activation of FGF signaling by measuring increase in eng3 expression at 10 to 20 uM dosed 1 to 10-somite stage by whole mount in situ hybridization assay; type: organism-based
# [6] = molecular target: T1, Dual specificity protein phosphatase (Danio rerio); experiment: Inhibition of Dusp6 in (Tg(Dusp6:d2EGFP)pt6) transgenic Zebrafish assessed as activation of FGF signaling by measuring increase in sef expression at 10 to 20 uM by semi-quantitative RT-PCR analysis
# Danio rerio [7] = species: Danio rerio; experiment: Induction of cardiac tissue expansion in ventricular tissue of Zebrafish embryos exposed to compound at larval stage followed by compound washout in next day and further incubation until embryos reached 56 hpf; type: functional, organism-based
# [8] = molecular target: T1, Dual specificity protein phosphatase (Danio rerio); experiment: Inhibition of Dusp6 in (Tg(Dusp6:d2EGFP)pt6) transgenic Zebrafish assessed as activation of FGF signaling at 5 uM by d2EGFP fluorescence based assay
# [9] = molecular target: T1, Dual specificity protein phosphatase (Danio rerio); experiment: Inhibition of Dusp6 in (Tg(Dusp6:d2EGFP)pt6) transgenic Zebrafish assessed as activation of FGF signaling by measuring expansion of rhombomere-4 and tail bud at 10 to 20 uM dosed 1 to 10-somite stage by whole mount in situ hybridization assay; type: organism-based
# [10] = molecular target: T1, Dual specificity protein phosphatase (Danio rerio); experiment: Inhibition of Dusp6 in (Tg(Dusp6:d2EGFP);ace mutant) transgenic Zebrafish assessed as activation of FGF signaling in mid-hindbrain boundary by d2EGFP fluorescence based assay
# [11] = molecular target: T1, Dual specificity protein phosphatase (Danio rerio); experiment: Inhibition of Dusp6 in (Tg(Dusp6:d2EGFP)pt6) transgenic Zebrafish assessed as activation of FGF signaling by measuring increase in dusp6 expression at 10 to 20 uM dosed 1 to 10-somite stage by whole mount in situ hybridization assay; type: organism-based
# [12] = molecular target: T2, Dual specificity protein phosphatase (Danio rerio) (UniProt Q6PBT4); experiment: Inhibition of Dusp5 in Zebrafish 1-cell stage embryos assessed as rescue of Zebrafish dusp5-mediated suppression of sef expression at 5 uM
# T2 sequence (whole entry): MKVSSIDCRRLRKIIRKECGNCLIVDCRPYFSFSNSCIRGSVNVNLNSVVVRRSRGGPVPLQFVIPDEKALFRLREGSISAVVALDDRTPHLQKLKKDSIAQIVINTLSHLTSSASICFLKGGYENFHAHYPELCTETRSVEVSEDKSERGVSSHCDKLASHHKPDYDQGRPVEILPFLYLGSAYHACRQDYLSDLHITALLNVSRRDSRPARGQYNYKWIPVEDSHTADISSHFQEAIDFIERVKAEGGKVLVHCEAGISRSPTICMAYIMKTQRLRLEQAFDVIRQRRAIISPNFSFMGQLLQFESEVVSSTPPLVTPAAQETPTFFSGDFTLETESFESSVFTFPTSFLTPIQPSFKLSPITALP
# Danio rerio [13] = species: Danio rerio; experiment: Induction of cardiac tissue expansion in Zebrafish embryos exposed to compound at post 1 and 8-somite stages followed by compound washout in next day and further incubation until embryos reached 56 hpf; type: functional, organism-based
# Danio rerio [14] = species: Danio rerio; experiment: Inhibition of exogenous Zebrafish spry4-mediated suppression of sef expression in Zebrafish 1-cell stage embryos at 5 uM; type: functional, organism-based
# [15] = molecular target: T1, Dual specificity protein phosphatase (Danio rerio); experiment: Inhibition of Dusp6 in Zebrafish 1-cell stage embryos assessed as rescue of Zebrafish dusp6-mediated suppression of sef expression at 5 uM
# Danio rerio [16] = species: Danio rerio; experiment: Induction of cardiac tissue expansion in Zebrafish embryos exposed to compound at 1 and 8-somite stages followed by compound washout in next day and further incubation until embryos reached 56 hpf; type: functional, organism-based
# [17] = molecular target: T1, Dual specificity protein phosphatase (Danio rerio); experiment: Inhibition of Dusp6 in (Tg(Dusp6:d2EGFP)pt6) transgenic Zebrafish assessed as activation of FGF signaling by measuring increase in spry4 expression at 10 to 20 uM by semi-quantitative RT-PCR analysis
# Danio rerio [18] = species: Danio rerio; experiment: Induction of cardiac tissue expansion in Zebrafish embryos exposed to compound at larval stage followed by compound washout in next day and further incubation until embryos reached 56 hpf; type: functional, organism-based
# [19] = molecular target: T1, Dual specificity protein phosphatase (Danio rerio); experiment: Inhibition of Dusp6 in Zebrafish assessed as assessed as activation of FGF signaling by measuring reduction in ETSRP expression relative to control
# [20] = molecular target: T3, Dual specificity protein phosphatase 6 (Homo sapiens) (UniProt Q16828); experiment: Inhibition of recombinant His-tagged Dusp6 (unknown origin) assessed as reduction in basal Dusp6 activity at 100 uM using OMFP substrate by fluorescence based assay
# T3 sequence (whole entry): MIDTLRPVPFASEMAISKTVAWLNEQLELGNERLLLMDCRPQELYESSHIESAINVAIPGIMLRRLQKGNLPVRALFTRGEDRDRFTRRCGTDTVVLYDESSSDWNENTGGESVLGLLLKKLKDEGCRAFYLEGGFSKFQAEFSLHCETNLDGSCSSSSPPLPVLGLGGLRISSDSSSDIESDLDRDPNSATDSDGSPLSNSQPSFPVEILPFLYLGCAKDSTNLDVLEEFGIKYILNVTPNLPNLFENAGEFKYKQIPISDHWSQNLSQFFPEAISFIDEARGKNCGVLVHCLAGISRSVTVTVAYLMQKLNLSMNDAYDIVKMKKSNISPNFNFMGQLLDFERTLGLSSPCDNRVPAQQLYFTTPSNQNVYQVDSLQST
# Danio rerio [21] = species: Danio rerio; experiment: Induction of cardiac tissue expansion in Zebrafish embryos assessed as induction of heart enlargement by measuring increase in cmlc2 expression exposed to compound at larval stage followed by compound washout in next day and further incubation until embryos reached 56 hpf by in situ hybridization assay; type: functional, organism-based
# [22] = molecular target: T3, Dual specificity protein phosphatase 6 (Homo sapiens); experiment: Inhibition of Myc-tagged human Dusp6 expressed in TPA-stimulated human HeLa cells assessed as suppression of Dusp6-induced reduction in ERK phosphorylation at 0.5 to 2 uM by immunostaining based assay; type: cell-based
# [23] = molecular target: T1, Dual specificity protein phosphatase (Danio rerio); experiment: Inhibition of Dusp6 in (Tg(Dusp6:d2EGFP)pt6) transgenic Zebrafish assessed as activation of FGF signaling by measuring expansion of prospective mid-hindbrain boundary at 10 to 20 uM dosed 1 to 10-somite stage by whole mount in situ hybridization assay; type: organism-based
# [24] = molecular target: T1, Dual specificity protein phosphatase (Danio rerio); experiment: Inhibition of Dusp6 in (Tg(Dusp6:d2EGFP)pt6) transgenic Zebrafish assessed as activation of FGF signaling by measuring increase in ntl expression within notochord and tail bud at 6-somite stage at 10 to 20 uM dosed prior to gastrulation by whole mount in situ hybridization assay; type: organism-based
# [25] = molecular target: T4, Dual specificity protein phosphatase 1 (Homo sapiens) (UniProt P28562); experiment: Inhibition of Myc-tagged human Dusp1 expressed in TPA-stimulated human HeLa cells assessed as suppression of […] reduction in ERK phosphorylation at 0.5 to 2 uM by immunostaining based assay; type: cell-based
# T4 sequence (whole entry): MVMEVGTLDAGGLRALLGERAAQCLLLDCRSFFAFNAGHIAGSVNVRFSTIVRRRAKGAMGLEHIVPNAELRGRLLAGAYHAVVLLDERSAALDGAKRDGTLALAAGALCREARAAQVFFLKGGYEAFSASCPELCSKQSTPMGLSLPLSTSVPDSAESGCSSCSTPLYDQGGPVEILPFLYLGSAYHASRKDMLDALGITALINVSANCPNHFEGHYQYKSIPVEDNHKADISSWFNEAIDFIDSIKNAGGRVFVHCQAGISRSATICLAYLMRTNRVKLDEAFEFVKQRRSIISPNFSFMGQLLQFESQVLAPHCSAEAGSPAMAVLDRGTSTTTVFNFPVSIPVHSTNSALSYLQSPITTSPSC
# Danio rerio [26] = species: Danio rerio; experiment: Inhibition of exogenous Zebrafish XFD-mediated suppression of sef expression in Zebrafish 1-cell stage embryos at 5 uM; type: functional, organism-based
# [27] = molecular target: T3, Dual specificity protein phosphatase 6 (Homo sapiens); experiment: Inhibition of Myc-tagged human Dusp6 expressed in TPA-stimulated human HeLa cells assessed as suppression of Dusp6-induced reduction in ERK phosphorylation by immunostaining based assay; type: cell-based
# [28] = molecular target: T3, Dual specificity protein phosphatase 6 (Homo sapiens); experiment: Inhibition of recombinant His-tagged Dusp6 (unknown origin) assessed as suppression of […] dephosphorylation at 100 uM incubated for 60 mins by immunoblotting
# [29] = molecular target: T1, Dual specificity protein phosphatase (Danio rerio); experiment: Inhibition of Dusp6 in (Tg(Dusp6:d2EGFP)pt6) transgenic Zebrafish assessed as activation of FGF signaling after 2 hrs by d2EGFP fluorescence based assay
# Danio rerio [30] = species: Danio rerio; experiment: Induction of cardiac tissue expansion in Zebrafish embryos assessed as induction of heart enlargement by measuring increase in VHMC expression exposed to compound at larval stage followed by compound washout in next day and further incubation until embryos reached 56 hpf by in situ hybridization assay; type: functional, organism-based
# [31] = Toxicity in (Tg(Dusp6:d2EGFP)pt6) transgenic Zebrafish assessed as induction of embryo death at >10 uM incubated for 24 hrs; design: species or system Danio rerio; conditions: in vivo
# [32] = Toxicity in (Tg(Dusp6:d2EGFP)pt6) transgenic Zebrafish assessed as induction of tail necrosis at >10 uM incubated for 24 hrs; design: species or system Danio rerio; conditions: in vivo
# [33] = Toxicity in (Tg(Dusp6:d2EGFP)pt6) transgenic Zebrafish assessed as induction of embryo death at 20 uM incubated for 24 hrs; design: species or system Danio rerio; conditions: in vivo, other: incubation
# [34] = molecular target: Dual specificity protein phosphatase 6 (Homo sapiens) (UniProt Q16828); experiment: Inhibition of recombinant His-tagged Dusp6 (unknown origin) assessed as suppression of […] dephosphorylation at 1 mM incubated for 60 mins by immunoblotting
# [35] = molecular target: T1, Dual specificity protein phosphatase (Danio rerio); experiment: Inhibition of Dusp6 in (Tg(Dusp6:d2EGFP)pt6) transgenic Zebrafish assessed as activation of FGF signaling at 20 uM by d2EGFP fluorescence based assay
compound,measurement,setting,value
O=C1/C(=C/c2ccccc2)C(NC2CCCCC2)c2cc(Br)ccc21 (stereo not drawn),Activity,[1],Non-Toxic
O=C1/C(=C/c2ccccc2)C(N2CCOCC2)c2ccccc21 (stereo not drawn),"mortality at 24 h, 10 µM",[2],100%
O=C1/C(=C/c2ccccc2)C(NC2CCCCC2)c2ccccc21 (stereo in doubt; form 2),Activity,[3],82%
O=C1/C(=C/c2ccccc2)C(NC2CCCCC2)c2ccccc21 (stereo in doubt; form 1) [listing 1 of 2 here],Activity,[3],100%
same,inhibition,[4],Active
same,inhibition,[5],Active
same,inhibition,[6],Active
same,Activity,Danio rerio [7],Active
same,inhibition,[8],Active
same,inhibition,[9],Active
same,inhibition,[10],inactive
same,inhibition,[11],Active
same,inhibition,[12],inactive
same,Activity,Danio rerio [13],inactive
same,inhibition,Danio rerio [14],inactive
same,inhibition,[15],Active
same,Activity,Danio rerio [16],Active
same,inhibition,[17],Active
same,Activity,Danio rerio [18],Dose-dependent effect
same,inhibition,[19],Active
same,inhibition,[20],inactive
same,Activity,Danio rerio [21],Active
same,inhibition,[22],Active
same,inhibition,[23],Active
same,inhibition,[24],Active
same,inhibition,[25],Active
same,inhibition,Danio rerio [26],inactive
same,inhibition,[27],Active
same,inhibition,[28],Active
same,inhibition,[29],Dose-dependent effect
same,Activity,Danio rerio [30],Active
O=C1/C(=C/c2ccccc2)C(NC2CCCCC2)c2ccccc21 (stereo in doubt; form 1) [listing 2 of 2 here],Activity,[31],Toxic
same,Activity,[32],Toxic
same,"mortality at 24 h, 20 µM",[33],100%
CC(C)(C)OC(=O)N[C@H]1CC[C@H](NC2/C(=C\c3ccccc3)C(=O)c3ccccc32)CC1 (stereo partly drawn),Activity,[3],inactive
N#Cc1ccc2c(c1)C(NC1CCCCC1)/C(=C\c1ccccc1)C2=O (stereo not drawn),Activity,[3],inactive
SODIUM ORTHOVANAD,inhibition,[34],Active
O=C1CC(NC2CCCCC2)c2ccccc21 (stereo not drawn),inhibition,[22],inactive
same,inhibition,[25],inactive
same,inhibition,[28],inactive
same,inhibition,[35],inactive
O=C1N[C@H]2[C@H](CS[C@H]2CCCCC(=O)N[C@H]2CC[C@H](NC3/C(=C\c4ccccc4)C(=O)c4ccccc43)CC2)N1 (stereo partly drawn),Activity,[3],inactive
O=C1/C(=C/c2ccccc2)Cc2ccccc21,inhibition,[35],inactive
